Results on eleven molecules are retold here after article PMC4376002 (Frontiers in Bioengineering and Biotechnology, 2015).

In brackets after ≈: the same amount, converted by molar mass.

Data set [1] relates to Mip-like protein of Burkholderia pseudomallei (BpML1). Conditions: ref Norville et al., 2011; read-out: IC50-value toward BpML1; cited from earlier work.
For data set [2], the system named is L. pneumophila Corby (WT). The data set is described as follows: microbe, parasite or virus in culture. Format: cell-based, Legionella pneumophila. The note with it: for influence on the viability of wild type L. pneumophila: liquic culture; for MIC: Legionella pneumophila, 48 h, read-out: WT MIC, growth in YEB, 10 to 100 μM, 37°C, 2 days.
The next data set addresses Mip of L. pneumophila (Legionella pneumophila subsp. pneumophila, UniProt Q5ZXE0). The data set is described as follows: biochemical. It is filed as biochemical.
In a further data set the target is human FKBP12 (Homo sapiens, UniProt P62942). The data set is described as follows: biochemical.
The test system of data set [3] is L. pneumophila Corby in differentiated THP-1 macrophages. Format: cell-based, Legionella pneumophila. The note with it: compound added 2 h post infection, cfu/ml 24 h post infection; for effect on bacterial replication in THP-1 cells: up to 100 μM; for concentration at which suppression of bacterial replication in THP-1 cells starts: 12.5 to 100 μM tested.
The subject of data set [4] is Salmonella enterica subsp. Enterica. Format: cell-based.
The next data set has as its system Escherichia coli K12. It is filed as cell-based.
In data set [5] the test system is Yersinia pseudotuberculosis. Format: cell-based. The note with it: LB medium, data not shown.
A further data set deals with Klebsiella aerogenes. Format: cell-based.
Data set [6] deals with Pseudomonas aeruginosa PA01. It is filed as cell-based.
In another data set the test system is Staphylococcus aureus. Format: cell-based.
Setting [7] is: growth in YEB, 10 to 100 μM, 37°C, 2 days.

Mip of L. pneumophila, sequence (Q5ZXE0 21-233 limits assumed): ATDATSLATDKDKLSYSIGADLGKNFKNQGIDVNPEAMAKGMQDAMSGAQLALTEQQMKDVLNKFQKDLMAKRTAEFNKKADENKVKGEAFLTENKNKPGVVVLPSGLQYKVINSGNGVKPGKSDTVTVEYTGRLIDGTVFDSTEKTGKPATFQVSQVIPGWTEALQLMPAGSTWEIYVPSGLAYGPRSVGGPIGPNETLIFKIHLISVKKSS
human FKBP12, sequence (P62942 whole entry): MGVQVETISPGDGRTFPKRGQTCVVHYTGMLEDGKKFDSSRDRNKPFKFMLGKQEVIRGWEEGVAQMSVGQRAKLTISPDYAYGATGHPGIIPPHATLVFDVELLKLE

In the case of `CCOC(=O)CN1C(=O)CC(CC(O)C2CC(C)CC(C)C2=O)CC1=O` (centres unmarked) [Cycloheximide-N-ethylethanoate], in data set [1], the IC50 was 6.5 ± 1 µM.
For `C[C@@H]1CC([C@H](O)CC2CC(=O)N(CC(=O)NC(C)(C)C)C(=O)C2)C(=O)[C@@H](C)C1` (some centres unmarked) [MT_30.3], the “WT Inhibition” value in data set [2] (setting [7]) is “- (no inhibition of growth at the highest tested concentration of 100 μM)”. Moreover, the “influence on the viability of wild type L. pneumophila” value (from here on “influence on the viability”) in [2] (10 to 100 μM) is “no influence”. Also, the IC50 at Mip of L. pneumophila turned out to be 33.8 ± 8.6 µM.
For the molecule `C[C@@H]1CC([C@H](O)CC2CC(=O)N(CC(=O)NC34CC5CC(CC(C5)C3)C4)C(=O)C2)C(=O)[C@@H](C)C1` (some centres unmarked) [MT_30.8], the “WT Inhibition” value in data set [2] (setting [7]) is listed as “- (no inhibition of growth at the highest tested concentration of 100 μM)”. Besides, the “influence on the viability” value in data set [2] (10 to 100 μM) is “no influence”. Besides, the IC50 against Mip of L. pneumophila worked out at 8.5 ± 2.1 µM; at human FKBP12, 400 ± 40 nM.
On to `C[C@@H]1CC([C@H](O)CC2CC(=O)N(CC(=O)N(C)C(C)(C)C)C(=O)C2)C(=O)[C@@H](C)C1` (some centres unmarked) [MT_30.9], for which, in data set [3], the “effect on bacterial replication in THP-1 cells” value (from here on “effect on bacterial replication”) is reported as “no effect”. Also, in data set [2], the MIC turned out to be 30 µM (≈ 12.3 µg/mL). At Mip of L. pneumophila, 31.7 ± 7.4 µM corresponded to half-maximal inhibition (IC50) and the “fold less effective than MT_30.32 in the protease coupled PPIase-assay” value was “about 18 fold”. Further, half-maximal inhibition at human FKBP12 (IC50) was put at 36100 ± 4100 nM.
Take `CC1CC(C)C(=O)C(C(O)CC2CC(=O)N(CC(=O)NC34CC5CC(C)(CC(C)(C5)C3)C4)C(=O)C2)C1` (centres unmarked) [MT_30.32]: the “effect on growth of S. enterica subsp. enterica” value in data set [4] was “none of the tested strains were affected in their growth”. In the data set with Escherichia coli K12, the “effect on growth of E. coli K12” value is “none of the tested strains were affected in their growth”. For the same molecule, the “effect on growth of Y. pseudotuberculosis” value in data set [5] is reported as “none of the tested strains were affected in their growth”. Also, in data set [3], the “concentration at which suppression of bacterial replication in THP-1 cells starts” value worked out at 50 µM and the “effect on bacterial replication” value is reported as “effectively suppressed bacterial replication”. In addition, the MIC in data set [2] is not below 30 µM. For the same molecule, the “effect on growth of K. aerogenes” value in the data set on Klebsiella aerogenes is listed as “none of the tested strains were affected in their growth”. At Mip of L. pneumophila, it took 1.7 ± 0.2 µM to reach half-maximal inhibition (IC50) and the “IC50-value for Mip relative to FKBP12 (fold higher; FKBP12 inhibited x-fold better)” value is reported as 10 fold. In addition, on human FKBP12, the midpoint of inhibition, the IC50, lay at 180 ± 50 nM. Further, the “effect on growth of P. aeruginosa PA01” value in data set [6] is listed as “none of the tested strains were affected in their growth”. For the same molecule, the “cytotoxicity to THP-1 cells” value with THP-1 cells was “without having cytotoxic side effects”. For the same molecule, the “effect on growth of S. aureus” value in the data set on Staphylococcus aureus was “none of the tested strains were affected in their growth”.
For `C[C@@H]1CC([C@H](O)CC2CC(=O)N(CC(=O)NC34CC5CC(CC(O)(C5)C3)C4)C(=O)C2)C(=O)[C@@H](C)C1` (some centres unmarked) [MT_30.38], the “WT Inhibition” value in data set [2] (setting [7]) is “- (no inhibition of growth at the highest tested concentration of 100 μM)”. Moreover, the “influence on the viability” value in data set [2] (10 to 100 μM) was “no influence”. The values for the IC50 against Mip of L. pneumophila and against human FKBP12 were 21.8 ± 3.3 µM and 1200 ± 100 nM, respectively.
As to `CCC12CC3CC(C1)CC(NC(=O)CN1C(=O)CC(C[C@@H](O)C4C[C@@H](C)C[C@H](C)C4=O)CC1=O)(C3)C2` (some centres unmarked) [MT_30.51], in [3], the “concentration at which suppression of bacterial replication in THP-1 cells starts” value amounted to 50 µM and the “effect on bacterial replication” value is given as “effectively suppressed bacterial replication”. The MIC in [2] was not below 30 µM. Besides, at Mip of L. pneumophila, inhibition was half-maximal at 5.6 ± 1.1 µM (IC50) and the “IC50-value for Mip relative to FKBP12 (fold higher; FKBP12 inhibited x-fold better)” value is on record as “about 25 fold”. The IC50 against human FKBP12 worked out at 190 ± 60 nM. Also, in the data set with THP-1 cells, the “cytotoxicity to THP-1 cells” value was “without having cytotoxic side effects”.
Turning to `CC1CC(C)C(=O)C(C(O)CC2CC(=O)N(CC(=O)NC34CC5(C)CC(C)(CC(O)(C5)C3)C4)C(=O)C2)C1` (centres unmarked) [MT_30.79], the “WT Inhibition” value in data set [2] (setting [7]) was “- (no inhibition of growth at the highest tested concentration of 100 μM)”. Moreover, the “influence on the viability” value in data set [2] (10 to 100 μM) is “no influence”. On Mip of L. pneumophila, the IC50 worked out at 4.9 ± 0.9 µM and the “IC50-value for Mip relative to FKBP12 (fold higher; FKBP12 inhibited x-fold better)” value is recorded as “about 25 fold”. Moreover, on human FKBP12, the IC50 stood at 220 ± 20 nM.
For `C[C@@H]1CC([C@H](O)CC2CC(=O)N(CC(=O)NC34CC5CC(CC(C5)C3)C4)C(=O)C2)[C@H](O)[C@@H](C)C1` (some centres unmarked) [MT_30.92], the MIC in [2] was not below 30 µM. For the same molecule, the IC50 at Mip of L. pneumophila is 12.6 ± 1.4 µM; on human FKBP12, 1000 ± 100 nM.
Taken in the same sequence, the figures for `C[C@@H]1CC([C@H](O)CC2CC(=O)N(CC(=O)NC34CC5CC(CC(C5)C3)C4)C(=O)C2)[C@@H](O)[C@@H](C)C1` (some centres unmarked) [MT_30.93] were not below 30 µM, 16.3 ± 2.6 µM and 900 ± 50 nM.
Take `CO[C@H]1C[C@@H]2CC[C@@H](C)[C@@](O)(O2)C(=O)C(=O)N2CCCC[C@H]2C(=O)O[C@H]([C@H](C)C[C@@H]2CC[C@@H](O)[C@H](OC)C2)CC(=O)[C@H](C)/C=C(\C)[C@@H](O)[C@@H](OC)C(=O)[C@H](C)C[C@H](C)/C=C/C=C/C=C/1C` [Rapamycin, reference compound]: the MIC in data set [2] is not below 40 µM. In addition, the “WT MIC” value in [2] (setting [7]) turned out to be 40 µM.
